IC50 data for 21 molecules are collected here from patent US11970498B2, “CDK2 inhibitors” (BLUEPRINT MEDICINES CORPORATION, priority 2021, dated 2024).

Experiment [1] addresses T1, CDK1/Cyclin B1, GST-tag (Homo sapiens, UniProt P06493).
T1 construct: GST
The experiment can be described thus: CDK1/Cyclin B1 biochemical phosphorylation assay (Caliper mobility shift). The note with it: apparent IC50; 1.0 mM ATP or ATP Km; 1.5 nM enzyme; 25° C. A digest of the protocol:
(§1)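 7.5 µM 5-FAM-QSPKKG-CONH2 peptide phosphorylated by CDK2/Cyclin E (1.25 nM) or GST-CDK1/Cyclin B1 (1.5 nM) at 1.0 mM ATP or ATP Km, in HEPES pH 7.5, MgCl2, Brij-35, DTT, 1% DMSO, 25 °C to 10–20% conversion. EDTA stop; Caliper mobility-shift readout; apparent IC50 from percent activity vs log concentration.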

For experiment [2], the target named is CDK2/Cyclin E (Homo sapiens, UniProt P24941). Briefly: CDK2/Cyclin E biochemical phosphorylation assay (Caliper mobility shift). The note with it: apparent IC50; 1.0 mM ATP or ATP Km; 1.25 nM enzyme; 25° C.; read-out: CDK2/cyclin E1 IC50. A digest of the protocol:
as §1

T1 sequence (P06493 whole entry): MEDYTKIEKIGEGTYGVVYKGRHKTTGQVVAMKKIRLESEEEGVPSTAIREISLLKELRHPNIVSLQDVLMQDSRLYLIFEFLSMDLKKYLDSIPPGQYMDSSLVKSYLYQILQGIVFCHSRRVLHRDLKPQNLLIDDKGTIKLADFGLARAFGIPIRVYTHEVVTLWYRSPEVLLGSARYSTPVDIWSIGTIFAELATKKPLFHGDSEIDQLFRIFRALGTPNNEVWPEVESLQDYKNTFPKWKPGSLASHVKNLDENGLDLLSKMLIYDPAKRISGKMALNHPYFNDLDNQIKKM
T1 sequence (P14635 whole entry partner): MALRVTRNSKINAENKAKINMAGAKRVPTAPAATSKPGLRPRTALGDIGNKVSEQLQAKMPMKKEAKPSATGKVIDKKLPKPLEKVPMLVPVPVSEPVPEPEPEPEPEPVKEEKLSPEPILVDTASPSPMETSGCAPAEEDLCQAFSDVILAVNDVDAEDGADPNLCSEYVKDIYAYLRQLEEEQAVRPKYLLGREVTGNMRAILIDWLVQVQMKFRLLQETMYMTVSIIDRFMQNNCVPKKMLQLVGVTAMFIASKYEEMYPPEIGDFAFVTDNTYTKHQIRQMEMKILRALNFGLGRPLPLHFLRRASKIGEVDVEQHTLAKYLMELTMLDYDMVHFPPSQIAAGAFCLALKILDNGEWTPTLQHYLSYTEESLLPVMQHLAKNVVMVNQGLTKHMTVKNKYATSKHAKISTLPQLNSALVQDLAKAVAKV

As for `C[C@H](c1cc(F)ccn1)n1ncc2ncc(Nc3cc(OC(F)F)[nH]n3)nc21` (single isomer, unassigned) [Example 14, (R)—N-(5-(difluoromethoxy)-1H-pyrazol-3-yl)-1-(1-(4-fluoropyridin-2-yl)ethyl)-1H-pyrazolo[3,4-b]pyrazin-6-amine or (S)—N-(5-(difluoromethoxy)-1H-pyrazol-3-yl)-1-(1-(4-fluoropyridin-2-yl)ethyl)-1H-pyrazolo[3,4-b]pyrazin-6-amine], the IC50 in experiment [1] is no less than 500 nM; in experiment [2], 10 to 20 nM.
Turning to `FC(F)Oc1cc(Nc2cnc3cnn(Cc4cccnc4)c3n2)n[nH]1` [Example 35, N-(5-(difluoromethoxy)-1H-pyrazol-3-yl)-1-(pyridin-3-ylmethyl)-1H-pyrazolo[3,4-b]pyrazin-6-amine], the IC50 was no less than 500 nM in experiment [1] and no more than 10 nM in experiment [2].
The matching figures for `CC(C)(C)n1ncc2ncc(Nc3cc(OC(F)F)[nH]n3)nc21` [Example 79, 1-(tert-butyl)-N-(5-(difluoromethoxy)-1H-pyrazol-3-yl)-1H-pyrazolo[3,4-b]pyrazin-6-amine]: no less than 500 nM and 20 to 30 nM.
The matching figures for `FC(F)Oc1cc(Nc2cnc3cnn(Cc4ccccc4)c3n2)n[nH]1` [Example 36, 1-benzyl-N-(5-(difluoromethoxy)-1H-pyrazol-3-yl)-1H-pyrazolo[3,4-b]pyrazin-6-amine]: no less than 500 nM and 20 to 30 nM.
For `FC(F)Oc1cc(Nc2cnc3cnn(Cc4nccs4)c3n2)n[nH]1` [Example 54, N-(5-(difluoromethoxy)-1H-pyrazol-3-yl)-1-(thiazol-2-ylmethyl)-1H-pyrazolo[3,4-b]pyrazin-6-amine], the values for the IC50 in experiment [1] and in experiment [2] were no less than 500 nM and 30 to 100 nM, respectively.
The matching figures for `COc1cc(Nc2cnc3cnn(Cc4cncs4)c3n2)n[nH]1` [Example 75, N-(5-methoxy-1H-pyrazol-3-yl)-1-(thiazol-5-ylmethyl)-1H-pyrazolo[3,4-b]pyrazin-6-amine]: no less than 500 nM and 20 to 30 nM.
Take `N#C[C@@H]1C[C@H]1Cn1ncc2ncc(Nc3cc(OC(F)F)[nH]n3)nc21` (single isomer, unassigned) [Example 26, (1R,2R)-2-((6-((5-(difluoromethoxy)-1H-pyrazol-3-yl)amino)-1H-pyrazolo[3,4-b]pyrazin-1-yl)methyl)cyclopropane-1-carbonitrile or (1S,2S)-2-((6-((5-(difluoromethoxy)-1H-pyrazol-3-yl)amino)-1H-pyrazolo[3,4-b]pyrazin-1-yl)methyl)cyclopropane-1-carbonitrile]: the IC50 in experiment [1] is no less than 500 nM; in experiment [2] it was greater than 100 nM.
Taken in the same sequence, the figures for `[2H]C([2H])(C1CCOCC1)n1ncc2ncc(Nc3cc(OC(F)F)[nH]n3)nc21` [Example 226, N-(5-(difluoromethoxy)-1H-pyrazol-3-yl)-1-((tetrahydro-2H-pyran-4-yl)methyl-d2)-1H-pyrazolo[3,4-b]pyrazin-6-amine] were 100 to 500 nM and no more than 10 nM.
The matching figures for `COc1cc(Nc2cnc3cnn([C@@H](C)c4cncs4)c3n2)n[nH]1` [Example 74, (S)-N-(5-methoxy-1H-pyrazol-3-yl)-1-(1-(thiazol-5-yl)ethyl)-1H-pyrazolo[3,4-b]pyrazin-6-amine]: no less than 500 nM and 20 to 30 nM.
Take `N#C[C@H]1C[C@H](Cn2ncc3ncc(Nc4cc(OC(F)F)[nH]n4)nc32)C1` (single isomer, unassigned) [Example 191, (1s,3s)-3-((6-((5-(difluoromethoxy)-1H-pyrazol-3-yl)amino)-1H-pyrazolo[3,4-b]pyrazin-1-yl)methyl)cyclobutane-1-carbonitrile or (1r,3r)-3-((6-((5-(difluoromethoxy)-1H-pyrazol-3-yl)amino)-1H-pyrazolo[3,4-b]pyrazin-1-yl)methyl)cyclobutane-1-carbonitrile]: the IC50 in experiment [1] is 100 to 500 nM; in experiment [2] it was no more than 10 nM.
Taken in the same sequence, the figures for `C[C@@H](c1ccc(F)nc1)n1ncc2ncc(Nc3cc(OC(F)F)[nH]n3)nc21` (single isomer, unassigned) [Example 152, (R)-N-(5-(difluoromethoxy)-1H-pyrazol-3-yl)-1-(1-(6-fluoropyridin-3-yl)ethyl)-1H-pyrazolo[3,4-b]pyrazin-6-amine or (S)-N-(5-(difluoromethoxy)-1H-pyrazol-3-yl)-1-(1-(6-fluoropyridin-3-yl)ethyl)-1H-pyrazolo[3,4-b]pyrazin-6-amine] were no less than 500 nM and 20 to 30 nM.
`FC(F)Oc1cc(Nc2cnc3cnn([C@@H]4CCCOC4)c3n2)n[nH]1` [Example 78, (R)-N-(5-(difluoromethoxy)-1H-pyrazol-3-yl)-1-(tetrahydro-2H-pyran-3-yl)-1H-pyrazolo[3,4-b]pyrazin-6-amine]: the IC50 in experiment [1] is no less than 500 nM; in experiment [2] it was 30 to 100 nM.
The matching figures for `COc1cc(Nc2cnc3cnn([C@@H](C)c4cc(F)ccn4)c3n2)n[nH]1` (single isomer, unassigned) [Example 187, (R)-1-(1-(4-fluoropyridin-2-yl)ethyl)-N-(5-methoxy-1H-pyrazol-3-yl)-1H-pyrazolo[3,4-b]pyrazin-6-amine or (S)-1-(1-(4-fluoropyridin-2-yl)ethyl)-N-(5-methoxy-1H-pyrazol-3-yl)-1H-pyrazolo[3,4-b]pyrazin-6-amine]: no less than 500 nM and greater than 100 nM.
Consider `FC(F)Oc1cc(Nc2cnc3cnn(C[C@H]4C[C@@H]4F)c3n2)n[nH]1` (single isomer, unassigned) [Example 159, N-(5-(difluoromethoxy)-1H-pyrazol-3-yl)-1-(((1R,2S)-2-fluorocyclopropyl)methyl)-1H-pyrazolo[3,4-b]pyrazin-6-amine or N-(5-(difluoromethoxy)-1H-pyrazol-3-yl)-1-(((1S,2R)-2-fluorocyclopropyl)methyl)-1H-pyrazolo[3,4-b]pyrazin-6-amine], for which the IC50 is no less than 500 nM in experiment [1] and no more than 10 nM in experiment [2].
The matching figures for `C[C@@H](O)c1nn([C@@H](C)c2cccnc2)c2nc(Nc3cc(OC(F)F)[nH]n3)cnc12` (single isomer, unassigned) [Example 178, (S)-1-(6-((5-(difluoromethoxy)-1H-pyrazol-3-yl)amino)-1-((S)-1-(pyridin-3-yl)ethyl)-1H-pyrazolo[3,4-b]pyrazin-3-yl)ethan-1-ol or (R)-1-(6-((5-(difluoromethoxy)-1H-pyrazol-3-yl)amino)-1-((S)-1-(pyridin-3-yl)ethyl)-1H-pyrazolo[3,4-b]pyrazin-3-yl)ethan-1-ol]: no less than 500 nM and no more than 10 nM.
Taken in the same sequence, the figures for `COc1cc(Nc2cnc3cnn([C@@H](C(F)F)C4CCOCC4)c3n2)n[nH]1` (single isomer, unassigned) [Example 193, (S)-1-(2,2-difluoro-1-(tetrahydro-2H-pyran-4-yl)ethyl)-N-(5-methoxy-1H-pyrazol-3-yl)-1H-pyrazolo[3,4-b]pyrazin-6-amine or (R)-1-(2,2-difluoro-1-(tetrahydro-2H-pyran-4-yl)ethyl)-N-(5-methoxy-1H-pyrazol-3-yl)-1H-pyrazolo[3,4-b]pyrazin-6-amine] were no less than 500 nM and 10 to 20 nM.
The matching figures for `FC(F)Oc1cc(Nc2cnc3cnn(C[C@H]4CCOC4)c3n2)n[nH]1` (single isomer, unassigned) [Example 143, (R)-N-(5-(difluoromethoxy)-1H-pyrazol-3-yl)-1-((tetrahydrofuran-3-yl)methyl)-1H-pyrazolo[3,4-b]pyrazin-6-amine or (S)-N-(5-(difluoromethoxy)-1H-pyrazol-3-yl)-1-((tetrahydrofuran-3-yl)methyl)-1H-pyrazolo[3,4-b]pyrazin-6-amine]: no less than 500 nM and 10 to 20 nM.
With `C[C@H](c1cccc(F)n1)n1ncc2ncc(Nc3cc(OC(F)F)[nH]n3)nc21` (single isomer, unassigned) [Example 156, (S)-N-(5-(difluoromethoxy)-1H-pyrazol-3-yl)-1-(1-(6-fluoropyridin-2-yl)ethyl)-1H-pyrazolo[3,4-b]pyrazin-6-amine or (R)-N-(5-(difluoromethoxy)-1H-pyrazol-3-yl)-1-(1-(6-fluoropyridin-2-yl)ethyl)-1H-pyrazolo[3,4-b]pyrazin-6-amine], the IC50 in experiment [1] was no less than 500 nM; in experiment [2] it was no more than 10 nM.
Turning to `CC1(C)C[C@H](Cn2ncc3ncc(Nc4cc(OC(F)F)[nH]n4)nc32)C(=O)N1` (single isomer, unassigned) [Example 184, (R)-3-((6-((5-(difluoromethoxy)-1H-pyrazol-3-yl)amino)-1H-pyrazolo[3,4-b]pyrazin-1-yl)methyl)-5,5-dimethylpyrrolidin-2-one or (S)-3-((6-((5-(difluoromethoxy)-1H-pyrazol-3-yl)amino)-1H-pyrazolo[3,4-b]pyrazin-1-yl)methyl)-5,5-dimethylpyrrolidin-2-one], the IC50 in experiment [1] was no less than 500 nM; in experiment [2], 30 to 100 nM.
The matching figures for `C[C@@H](c1ccccn1)n1ncc2ncc(Nc3cc(OC(F)F)[nH]n3)nc21` [Example 4, (S)—N-(5-(difluoromethoxy)-1H-pyrazol-3-yl)-1-(1-(pyridin-2-yl)ethyl)-1H-pyrazolo[3,4-b]pyrazin-6-amine]: no less than 500 nM and no more than 10 nM.
`N#CCC1(Cn2ncc3ncc(Nc4cc(OC(F)F)[nH]n4)nc32)CC1` [Example 132, 2-(1-((6-((5-(difluoromethoxy)-1H-pyrazol-3-yl)amino)-1H-pyrazolo[3,4-b]pyrazin-1-yl)methyl)cyclopropyl)acetonitrile]: the IC50 in experiment [1] is no less than 500 nM; in experiment [2], 30 to 100 nM.
